No end group written: not given here.
Columns and labels:
[1] = molecular target: T1, peripheral CCK receptors (pancreas) (Rattus norvegicus, UniProt P30551); test: peripheral CCK receptor binding affinity on rat pancreas homogenate (inhibition of 3[H]-CCK-8 binding); parameters: species or system rat (male Wistar); settings: 0.3 nM 3[H]-CCK-8, 90 min, 25° C., pH 7.4, calculated from IC50 by Cheng-Prusoff; for Ki: read-out: In vitro binding to peripheral CCK receptors (pancreas) pKi values (converted)
T1 construct: Whole pancreas glands from male Wistar rats with a body weight of 150-300 g; from tissue; host or cells: whole pancreas glands of male Wistar rats, washed homogenate
T1 sequence (P30551 1-444): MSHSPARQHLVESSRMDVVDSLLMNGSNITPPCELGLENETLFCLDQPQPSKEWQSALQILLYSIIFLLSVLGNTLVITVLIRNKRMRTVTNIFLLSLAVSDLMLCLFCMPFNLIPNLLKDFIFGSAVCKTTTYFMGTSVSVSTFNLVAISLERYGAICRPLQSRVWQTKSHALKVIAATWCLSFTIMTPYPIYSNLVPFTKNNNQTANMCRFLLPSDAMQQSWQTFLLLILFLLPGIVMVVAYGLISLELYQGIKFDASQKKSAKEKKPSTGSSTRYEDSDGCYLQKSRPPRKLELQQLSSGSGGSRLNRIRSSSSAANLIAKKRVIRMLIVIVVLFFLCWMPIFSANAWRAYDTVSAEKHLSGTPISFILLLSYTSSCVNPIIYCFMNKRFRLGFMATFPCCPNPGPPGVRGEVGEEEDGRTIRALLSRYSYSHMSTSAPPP
Description: The affinity of the compounds of formula I for peripheral CCK receptors was measured in vitro on rat pancreas homogenate. The inhibition of the binding of the physiologically relevant octopeptide CCK-8 to peripheral CCK receptors by the test substances was determined.
The receptor binding studies were carried out by a modification of the method of van Dijk et al. (J. Neuroscience 4 (1984), 1021-1033), using soya bean trypsin inhibitor (=SBTI) as protease inhibitor. ^3 [H]-CCK-8, code TRK 775, from Amersham Int., having a specific activity of 60-90 Ci/mmol, was used as tritium-labelled CCK-8.
Whole pancreas glands from male Wistar rats with a body weight of 150-300 g, which had been sacrificed by decapitation, were freed of fatty tissue and homogenized for 15 seconds in a 50-fold volume of an ice-cold test buffer solution (10 mmol 2-[4-(2-hydroxyethyl)-piperazin-1-yl]-ethanesulfonic acid (=HEPES), 130 mmol sodium chloride, 5 mmol magnesium chloride, 0.02% bacitracins, 0.01% SBTI, pH 7.4) with a Kinematica Polytron type homogenizer. The homogenates were then centrifuged at 48,000 g for 10 minutes. This washing method was repeated. After the last centrifugation, the residue which was obtained each time in the form of a pellet was suspended in a 550-fold volume of the test buffer solution and immediately used for the measurement.
For the binding test, 500 μl of the tissue homogenate were incubated with 50 μl of test buffer solution or 50 μl of a solution of the compound to be investigated and with 50 μl of a ^3 [H]-CCK-8 solution (final concentration 0.3 nM). The non-specific binding was assumed to be 0.1 μmol CCK-8. The incubation lasted 90 minutes at 25° C. All the compounds were measured 3 times at each of several concentrations.
Aqueous solutions were employed as test substance solutions and were prepared by appropriate dilution of 60×10^-4 molar aqueous stock solutions. Test substances which are sparingly soluble in water were first dissolved in 96% ethanol, and this solution was diluted with sufficient water for the ethanol concentration not to exceed 1.6% by volume in the solution to be tested.
Bound and free ^3 [H]-CCK-8 were separated by filtration through glass fiber filters. The filters were washed twice with 3 ml of HEPES solution each time and then placed in the scintillation solution (SAVE scintillation solution from Packard) in the dark overnight and counted in a Packard TriCarb 1500™liquid scintillation counter. The IC50 of the respective test substance was determined to be that concentration which caused a 50% inhibition of the specific binding of tritiated CCK-8 to the receptors. From this, the corresponding pKi value was calculated using the Cheng-Prusoff equation. […]

[2] = system: CCK-induced disturbance of stomach emptying; test: effect of test substances on CCK-induced disturbances of emptying of the stomach (charcoal transport into duodenum); type: in vivo, mouse (female NMRI)
Description: Doses of CCK lead to substantial blockade of the transpyloric transport of chyme from the stomach into the duodenum. The ability of the test substances to eliminate this blocking effect of CCK was investigated.
Female NMRI mice having body weights of 20-25 g were used in groups of ten animals each. […] A control group received only the Tylose® solution or the solution containing the solubilizer polyethylene glycol in each case. 60 minutes later the animals were given a subcutaneous injection of 80 Ig/kg CCK-8. After a further 5 minutes the animals were each orally administered 0.3 ml of a charcoal suspension (5% charcoal in 2% strength Tylose solution). The mice were sacrificed 5 minutes later and subsequently dissected. They were examined to find whether charcoal suspension had advanced into the duodenum.
The percentage of animals in which the CCK effect was eliminated and charcoal suspension was found in the duodenum after administration of the test substances was determined.

[3] = system: CCK-induced gallbladder emptying; test: inhibitory effect of test substances on CCK-induced gallbladder emptying (gallbladder weight); type: in vivo, mouse (female NMRI); settings: for % Inhibition of CCK-induced Gallbladder Emptying: CCK-8 i.p. 60 min later
Description: CCK causes a contraction of the muscles of the gallbladder and thus an emptying of the gallbladder. […] Intraperitoneal doses of 0.1 μg/kg CCK-8 may result in the weight of the gallbladders decreasing to about 1/10 of the original weight.
Female NMRI mice having a body weights of 20-25 g were used in groups of 10 animals each. After withdrawal of feed for 24 hours (drinking water ad libitum) the animals received an oral dose of the test substance suspended in a volume of 10 ml/kg of body weight of a 1% strength Tylose® solution (=methylcellulose) or in a volume of 10 ml/kg of body weight of a solubilizer solution which contained 5% glycerol, 87% polyethylene glycol 400, and 8% water. Two control groups each received only the Tylose® solution or the solution containing the solubilizer polyethylene glycol. One of the control groups and all the animals treated with test substance received 0.1 Ig/kg CCK-8 injected i.p. 60 minutes later.
The mice were sacrificed 5 minutes after the CCK-8 administration, and the gallbladders were excised and weighed.
The following Table C lists the percentage inhibition of the CCK-8 effect on gallbladder weights caused by the test substances.

[4] = determination of the minimum toxic dose; type: in vivo, mouse (male); settings: mouse
Description: Male mice weighing 20-25 g were given maximum oral doses of 300 mg/kg of the test substance. The animals were observed carefully for three hours for symptoms of toxicity. In addition, all symptoms and deaths were recorded for a period of 24 hours after administration. Concomitant symptoms were likewise observed and recorded. If death or serious symptoms of toxicity were observed, further mice were given increasingly lower doses. The lowest dose which caused death or serious symptoms of toxicity is indicated in the following Table A as the minimum toxic dose.

[5] = dose 10 μmol/kg mouse oral, CCK-8 s.c. 60 min later
[6] = dose 0.1 μmol/kg mouse oral, CCK-8 s.c. 60 min later
[7] = dose 1.0 μmol/kg mouse oral, CCK-8 s.c. 60 min later
[8] = oral, lowest dose causing death or serious symptoms of toxicity, max 300 mg/kg, 24 h
[9] = dose 1.0* μmol/kg mouse oral, * = administered in solution containing solubilizer (PEG 400)

Molecule | Ki [1] | Minimum toxic dose [4, 8] | other results
COc1ccc2c(c1)N(C)C(=O)C(NC(=O)c1cc3cccc4c3n1CCC4)N=C2c1ccccc1 (single isomer, unassigned; (+)) [Example 2b, (+)-3-[(4H-pyrrolo[3,2,1-ij]-5,6-dihydroquinoline-2-carbonyl)-amino]-8-methoxy-1-methyl-2-oxo-5-phenyl-1H-2,3-dihydro-1,4-benzodiazepine] | 19.5 nM |  | % of Animals in which the CCK Effect was Eliminated [2, 5]: 70%; % Inhibition of CCK-induced Gallbladder Emptying ([3]; dose 46 μmol/kg mouse oral): 8.3%
COc1ccc2c(c1)N(C)C(=O)C(NC(=O)c1cc3cccc4c3n1CCC4)N=C2c1ccccc1 (single isomer, unassigned; (-)) [Example 2a, (-)-3-[(4H-pyrrolo[3,2,1-ij]-5,6-dihydroquinoline-2-carbonyl)-amino]-8-methoxy-1-methyl-2-oxo-5-phenyl-1H-2,3-dihydro-1,4-benzodiazepine] | 0.257 nM |  | % of Animals in which the CCK Effect was Eliminated [2, 6]: 100%; % Inhibition of CCK-induced Gallbladder Emptying ([3]; dose 0.46 μmol/kg mouse oral): 16%
CN1C(=O)C(NC(=O)c2cc3cccc4c3n2CCC4)N=C(C2CCCCC2)c2ccccc21 (stereo not shown) [Example 4, 3-[(4H-pyrrolo[3,2,1-ij]-5,6-dihydroquinoline-2-carbonyl)-amino]-1-methyl-2-oxo-5-cyclohexyl-1H-2,3-dihydro-1,4-benzodiazepine] | 2.51 nM |  | Minimum toxic dose ([4]; in vivo, 1440 min): > 300 mg/kg; % of Animals in which the CCK Effect was Eliminated [2, 7]: 45%
CN1C(=O)C(NC(=O)c2cc3cc(F)cc4c3n2CCC4)N=C(c2ccccc2)c2ccccc21 (stereo not shown) [Example 5, 3-[(8-fluoro-4H-pyrrolo[3,2,1-ij]-5,6-dihydroquinoline-2-carbonyl)-amino]-2-oxo-1-methyl-5-phenyl-1H-2,3-dihydro-1,4-benzodiazepine] | 1.45 nM | > 300 mg/kg | % of Animals in which the CCK Effect was Eliminated [2, 5]: 75%
Cc1ccc2c(c1)C(c1cccs1)=NC(NC(=O)c1cc3cccc4c3n1CCC4)C(=O)N2C (stereo not shown) [Example 8, 3-[(4H-Pyrrolo[3,2,1-ij]-5,6-dihydroquinoline-2-carbonyl)-amino]-1,7-dimethyl-2-oxo-5-(2-thienyl)-1H-2,3-dihydro-1,4-benzodiazepine] | 9.12 nM |  | 
Cc1ccc2c(c1)C(c1ccccc1F)=NC(NC(=O)c1cc3cccc4c3n1CCC4)C(=O)N2C (stereo not shown) [Example 10] |  | 300 mg/kg | In vitro binding to peripheral CCK receptors (pancreas) pKi values [1]: 8.75; % of Animals in which the CCK Effect was Eliminated [2, 6]: 40%
CN1C(=O)C(NC(=O)c2cc3cccc4c3n2CCC4)N=C(c2ccc(F)cc2F)c2ccccc21 (stereo not shown) [Example 11] | 2.4 nM | 300 mg/kg | 
COc1ccc2c(c1)N(C)C(=O)C(NC(=O)c1cc3cccc4c3n1CCC4)N=C2c1c(F)cccc1F (stereo not shown) [Example 13] | 1 nM | > 300 mg/kg | % of Animals in which the CCK Effect was Eliminated [2, 5]: 83%; % of Animals in which the CCK Effect was Eliminated [2, 9]: 100%
COc1ccc2c(c1)N(C)C(=O)C(NC(=O)c1cc3cccc4c3n1CCC4)N=C2c1c(F)cccc1OCCC(C)C (stereo not shown) [Example 17] | 10 nM |  | % of Animals in which the CCK Effect was Eliminated [2, 9]: 50%
Cc1ccc2c(c1)C(c1ccccc1)=NC(NC(=O)c1cc3cccc4c3n1CCC4)C(=O)N2C (stereo not shown) [Example 18] | 1.17 nM | > 300 mg/kg | 
CN1C(=O)C(NC(=O)c2cc3cccc4c3n2CCC4)N=C(c2ccccc2F)c2ccccc21 (stereo not shown) [Example 22] | 0.912 nM | > 300 mg/kg | 
O=C(NC1N=C(c2ccccc2)c2ccccc2N(CC2CC2)C1=O)c1cc2cccc3c2n1CCC3 (stereo not shown) [Example 23] | 10 nM | > 300 mg/kg | 
CC(C)N1C(=O)C(NC(=O)c2cc3cccc4c3n2CCC4)N=C(c2ccccc2)c2ccccc21 (stereo not shown) [Example 25] | 24 nM | > 300 mg/kg | 
CN1C(=O)C(NC(=O)c2cc3cc(F)cc4c3n2CCC4)N=C(c2ccccc2)c2cc(Cl)ccc21 (stereo not shown) [Example 26] | 6.17 nM |  | 
Cc1ccc2c(c1)C(c1ccc(Cl)c(Cl)c1)=NC(NC(=O)c1cc3cccc4c3n1CCC4)C(=O)N2C (stereo not shown) [Example 27] |  |  | % of Animals in which the CCK Effect was Eliminated [2, 7]: 40%
Cc1ccc(C2=NC(NC(=O)c3cc4cccc5c4n3CCC5)C(=O)N(C)c3ccccc32)cc1 (stereo not shown) [Example 30] | 2.34 nM | 300 mg/kg | 
CN1C(=O)C(NC(=O)c2cc3cccc4c3n2CCO4)N=C(c2ccccc2)c2ccccc21 (stereo not shown) [Example 37] | 0.646 nM |  | 
CN1C(=O)C(NC(=O)c2cc3cccc4c3n2CCS4)N=C(c2ccccc2)c2ccccc21 (stereo not shown) [Example 38] | 0.977 nM |  | 
CCK-8: the octapeptide CCK-8 is the smallest unit with the complete spectrum of CCK effects (DYMGWMDF; ends and bridges not checked; UniProt P06307 96-103, looked up) [reference compound] |  |  | animals with traces of charcoal suspension in the duodenum ([2]; control animals which received a dose of CCK (80 Ig/kg CCK-8 subcutaneous), no test substance): not more than 5%; weight of the gallbladders decreasing to fraction of the original weight ([3]; intraperitoneal 0.1 μg/kg CCK-8): about 1/10

Source: US5010076A, “1,7-fused 1H-indole-2-carboxylic acid-N-(1,4-benzodiazepin-3-yl)amides” (Kali-Chemie Pharma GmbH, priority 1989, dated 1991)
